Marks after values point to notes of the source that are not given here.
Key:
[1] = Glucose tolerance test after tolbutamide in high-fat diet-induced obese mice; type: in vivo, C57BL/6 mice
Protocol: Eleven-month-old high-fat diet-fed (45% of energy from fat; Research Diet Inc., New Brunswick, NJ) C57BL/6 mice were obtained from the National Health Research Institute (Miaoli, Taiwan). Control mice were orally administered 0.5% methyl cellulose (10 mL/kg). […] After the 5th daily dose, the mice were deprived of food overnight. On day 6, a 20 mg/kg oral dose of tolbutamide, as a solution in Cremophor EL/ethanol/water (30/10/60, v/v/v), was administered to each mouse. Thirty minutes later, a 1 g/kg dose of glucose, as a solution in water, was administered orally according to the method described by Zong et al.. Serial blood samples were collected up to 8 h after the glucose dose from each mouse. The animals were then killed by exsanguination and the livers collected.
Plasma glucose was determined by use of enzymatic kits purchased from Audit Diagnostics Co. (Cork, Ireland). Plasma aspartate aminotransferase (AST) and alanine aminotransferase (ALT) activities were measured by using commercial kits purchased from Randox Laboratories (Antrim, UK).

[2] = tested on: CYP2E1; test: Immunoblot and RT-PCR of hepatic CYP2E1 in treated rats; type: in vivo; conditions: rat liver; APE or andrographolide for 5 days
Protocol: Aliquots of microsomal protein (10 μg) were electrophoresed in an SDS-polyacrylamide gel, and proteins were then transferred to polyvinylidene fluoride membranes. After blocking, membranes were hybridized with antibodies to CYP1A1, CYP1A2, CYP2C6, CYP2C11, CYP2D1, CYP2E1, CYP3A1, and CYP3A2.
Total RNA in liver samples was extracted by using the Trizol reagent (1 : 20, w/v). […] The sequences for the PCR primers were as follows: for CYP1A1 (forward: 5′-[…]-3′; reverse: 5′-[…]-3′), CYP1A2 (forward: 5′-[…]-3′; reverse: 5′-[…]-3′), CYP2C6 (forward: 5′-[…]-3′; reverse: 5′-[…]-3′), CYP2C11 (forward: 5′-[…]-3′; reverse: 5′-[…]-3′), CYP2D1 (forward: 5′-[…]-3′; reverse: 5′-[…]-3′), CYP2E1 (forward: 5′-[…]-3′; reverse: 5′-[…]-3′), CYP3A1 (forward: 5′-[…]-3′; reverse: 5′-[…]-3′), CYP3A2 (forward: 5′-[…]-3′; reverse: 5′-[…]-3′), and P-glycoprotein (forward: 5′-[…]-3′; reverse: 5′-[…]-3′). The PCR for CYP1A1 was performed as follows: 5 min at 95°C and then 35 cycles of 30 s at 94°C, 30 s at 54°C, and 60 s at 72°C. […] The PCR amplicons were then electrophoresed in 1% agarose gels containing 40 mM Tris/20 mM glacial acetic acid/2 mM EDTA buffer, and the relative densities of the PCR products were quantitated by use of Image Gauge software (Fujifilm, Tokyo, Japan). […]

[3] = tested on: CYP2C; test: Diclofenac 4-hydroxylation in liver microsomes of treated rats; type: in vivo; conditions: rat liver microsomes; oral 2 g/kg APE or 50 mg/kg AND daily for 5 days
Protocol: Liver was homogenized (1 : 4, w/v) in an ice-cold potassium phosphate buffer (pH 7.4) containing 7.4 mM K2HPO4, 2.6 mM KH2PO4, 1.15% KCl, and 1 mM phenylmethylsulfonyl fluoride (PMSF). Tissue homogenates were centrifuged at 10,000 ×g for 30 min at 4°C. The resulting supernatant was then centrifuged at 105,000 ×g for 1 h at 4°C. The microsomes thus obtained were washed several times to get rid of possible tolbutamide contamination and this can avoid tolbutamide interference of CYP activity, and the microsomes were then suspended in potassium phosphate buffer (pH 7.7) containing 7.5 mM K2HPO4, 14.5 mM KH2PO4, and 1 mM EDTA. […] Metabolites of each CYP enzyme reaction were determined by LC/MS as reported previously. The contents of total CYP and cytochrome b5 were quantified by the method of Omura and Sato [29]. Enzyme activity is expressed as picomoles of metabolite formed per minute per milligram of protein. The NADPH-CYP reductase activity was measured as described by Phillips and Langdon with the use of cytochrome c as the substrate. The microsomal protein concentration was determined by using a Coomassie Plus protein assay kit (Pierce, Rockford, IL, USA).

[4] = obese mice, 2 g/kg APE or 50 mg/kg AND for 5 days, day 6 tolbutamide 20 mg/kg oral, 30 min later glucose 1 g/kg oral

SMILES: C=C1CC[C@@H]2[C@](C)(CO)[C@H](O)CC[C@@]2(C)[C@@H]1C/C=C1/C(=O)OC[C@H]1O [andrographolide, Andrographolide]
- Hypoglycemic effect of tolbutamide in a glucose tolerance test ([1]; high-fat diet-induced obese mice treated with APE or andrographolide): not changed
- Plasma glucose, time 0 h [1, 4]: 80 ± 7^a mg/dL
- Plasma glucose, time 0.25 h [1, 4]: 152 ± 37^a mg/dL
- Plasma glucose, time 0.5 h [1, 4]: 124 ± 28^ab mg/dL
- Plasma glucose, time 1 h [1, 4]: 99 ± 29 mg/dL
- Plasma glucose, time 2 h [1, 4]: 88 ± 28 mg/dL
- Plasma glucose, time 4 h [1, 4]: 76 ± 17^a mg/dL
- Plasma glucose, time 8 h [1, 4]: 80 ± 17^a mg/dL
- Fasting blood glucose level ([1]; obese mice, APE or andrographolide for 5 days, fasted overnight): 80 ± 7 mg/dL
- Area under the plasma glucose concentration versus time curve (AUC0–8 h) ([1]; obese mice, APE or andrographolide for 5 days, then tolbutamide and glucose load): 171 ± 42 mg·h/dL
- CYP2E1 protein or mRNA levels compared with controls [2]: no changes
- Diclofenac 4-hydroxylase (2C) [3]: 43.8 ± 10.5^b pmol/min/mg protein
